Measurements taken from paper PMC10608614, “Biochemical Insights into a Novel Family 2 Glycoside Hydrolase with Both β-1,3-Galactosidase and β-1,4-Galactosidase Activity from the Arctic” (Marine Drugs, 2023).

Tests used:
[1] = target: T1, rMaBGA (Marinomonas sp. BSi20584, UniProt Z9SNG8Y577); assay: steady-state kinetics, nonlinear Michaelis-Menten fit; o-nitrophenol absorbance at […] nm; assay type: biochemical; details: 0.1–10 mM substrate; standard assay 10 mM PBS, 30 °C (not restated for kinetics)
T1 construct: predicted signal peptide (first 28 aa) removed; codon-optimised, pET-28a(+), E. coli BL21(DE3), Ni-NTA purified, tag not reported cut; about 100 kDa on SDS-PAGE
T1 sequence (Z9SNG8Y577 29-897): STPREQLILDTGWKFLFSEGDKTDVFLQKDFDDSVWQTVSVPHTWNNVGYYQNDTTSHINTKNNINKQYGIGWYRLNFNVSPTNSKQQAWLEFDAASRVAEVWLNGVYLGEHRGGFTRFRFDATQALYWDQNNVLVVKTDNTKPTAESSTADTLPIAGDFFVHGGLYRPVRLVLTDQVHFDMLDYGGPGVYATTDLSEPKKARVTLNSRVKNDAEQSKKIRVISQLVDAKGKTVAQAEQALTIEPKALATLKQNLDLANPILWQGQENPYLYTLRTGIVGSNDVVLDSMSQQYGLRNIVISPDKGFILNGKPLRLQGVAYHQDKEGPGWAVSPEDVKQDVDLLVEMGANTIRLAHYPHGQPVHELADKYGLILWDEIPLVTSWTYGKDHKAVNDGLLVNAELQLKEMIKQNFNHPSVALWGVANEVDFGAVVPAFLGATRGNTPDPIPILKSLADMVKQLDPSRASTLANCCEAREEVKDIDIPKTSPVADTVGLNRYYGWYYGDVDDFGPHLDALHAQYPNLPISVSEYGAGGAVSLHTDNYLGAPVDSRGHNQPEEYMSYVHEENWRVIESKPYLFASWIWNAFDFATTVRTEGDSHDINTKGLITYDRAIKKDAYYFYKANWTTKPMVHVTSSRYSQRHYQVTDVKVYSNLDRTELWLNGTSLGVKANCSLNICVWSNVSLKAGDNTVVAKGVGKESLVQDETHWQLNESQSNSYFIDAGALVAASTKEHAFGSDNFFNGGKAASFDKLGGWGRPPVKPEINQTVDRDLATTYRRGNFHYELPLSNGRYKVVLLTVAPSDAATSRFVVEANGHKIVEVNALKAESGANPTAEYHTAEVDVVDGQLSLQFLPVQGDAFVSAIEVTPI

[2] = target: T1, rMaBGA; assay: steady-state kinetics, nonlinear Michaelis-Menten fit; galactose by coupled enzymatic assay; assay type: biochemical; details: pH and temperature not stated
Description: steady-state kinetics, nonlinear Michaelis-Menten fit; galactose by coupled enzymatic assay on rMaBGA

A Km [1] of 294 ± 44 µM was found for `O=[N+]([O-])c1ccccc1O[C@@H]1O[C@H](CO)[C@H](O)[C@H](O)[C@H]1O` [ONPG] in this work.

A Km ([2]; 1–50 mM substrate) of 7.02 ± 1.18 mM was found for `CC(=O)N[C@H]1C(O)O[C@H](CO)[C@@H](O[C@@H]2O[C@H](CO)[C@H](O)[C@H](O)[C@H]2O)[C@@H]1O` (stereo partly drawn) [Galβ-(1,4)-GlcNAc] in this work.

A Km ([2]; 1–40 mM substrate) of 2.11 ± 0.484 mM was found for `CC(=O)N[C@H]1C(O)O[C@H](CO)[C@@H](O)[C@@H]1O[C@@H]1O[C@H](CO)[C@H](O)[C@H](O)[C@H]1O` (stereo partly drawn) [Galβ-(1,3)-GlcNAc] in this work.
